According to patent EP2265631B1, “NOVEL ANTIMICROBIAL PEPTIDES AND THEIR APPLICATION” (Ustav Organicke Chemie a Biochemie Akademie Ved Ceske …, priority 2008, dated 2009):

Columns and labels:
Bacilus subtilis = assay: Determination of antimicrobial activity (MIC, bacterial growth in LB broth); assay type: cell-based; details: minimum inhibitory concentration (MIC) per method, 37°C, 20 h, read-out: Antimicrobial activity IC50 [µM] B.s.
Description: (§1) Antimicrobial activity was determined as a quantitative minimum inhibitory concentration (MIC) by observing bacterial growth in the presence of different concentrations of tested peptides. Mid-exponential phase bacteria were added to the solutions of the tested antimicrobial peptide at different concentrations (0.5 to 100 µM) in LB broth in multi-well plates. The plates were incubated at 37°C for 20 h while being continuously shaken in a Bioscreen C instrument (Finland). The absorbance was measured at 540 nm every 15 min and each peptide was tested at least 3 times in duplicate. 1.2.10^3 - 7.5.10^3 CFU of bacteria was routinely used in the experiments. Tetracycline in a concentration range of 0.1 - 50 µM was tested as a standard.

Escherichia coli = assay: as above; assay type: cell-based; details: minimum inhibitory concentration (MIC) per method, 37°C, 20 h, read-out: Antimicrobial activity IC50 [µM] E. c.
Description: as §1

Pseudomonnas aeruginosa = assay: as above; assay type: cell-based; details: minimum inhibitory concentration (MIC) per method, 37°C, 20 h, read-out: Antimicrobial activity IC50 [µM] P.a.
Description: as §1

Staphylococcus aureus = assay: as above; assay type: cell-based; details: minimum inhibitory concentration (MIC) per method, 37°C, 20 h, read-out: Antimicrobial activity IC50 [µM] S.a.
Description: as §1

rat red blood cells = assay: Determination of hemolytic activity; assay type: cell-based
Description: The peptides in the concentration (1-200 µM) were incubated with rat red blood cells (5%) for 1 h at 37°C in a physiological solution at a final volume of 0.2 ml. The samples were then centrifuged for 5 min at 250 g, and the absorbance of the supernatant was determined at 540 nm. Supernatants of red blood cells suspended in physiological solution and in 0.2% TRITON X100 in physiological solution served as controls for zero hemolysis (blank) and 100% hemolysis, respectively. Table 3. Antimicrobial and hemolytic activity of melectin (I) and its synthetic analogs of formulas II/1 to II/18

[1] = system: human cervix carcinoma HeLa S3; assay: Cytostatic effect on cancer cells (e.g. MTT test); assay type: cell-based; details: 24-72 h incubation, 50% decrease in cell viability; read-out: IC50 [µM] HeLaS3
Description: (§2) Tumor cells in suspension or adherent cells were incubated under standard conditions in appropriate culture media for 24-72 h with the peptides in 2-40 micromolar concentration. After this time, the number of living cells was determined using routine tests, e.g. MTT test. The IC50 was determined as concentration of peptides, which caused 50% decrease in cell viability in comparison to controls (no peptide present). In preliminary tests mouse lymphocytic leukemia L1210 (CCL 219), CCRF-CEM T lymphoblastoid (human acute lymphoblastic leukemia, CCL 119), human promyelocytic leukemia HL-60 (CCL 240), human cervix carcinoma HeLa S3, rat pheochromocytoma PC12, human colon adenocarcinoma SW480 (CCL-228), and normal rat epithelial cells (IEC-6, CRL-1592) from ATCC (Manassas, VA, USA), were used. […] Table 4. Cytostatic effect of selected peptides on cancer cells

[2] = system: human colon adenocarcinoma SW480; assay: Cytostatic effect on cancer cells (e.g. MTT test); assay type: cell-based; details: 24-72 h incubation, 50% decrease in cell viability
Description: as §2

[3] = system: human promyelocytic leukemia HL-60; assay: Cytostatic effect on cancer cells (e.g. MTT test); assay type: cell-based; details: 24-72 h incubation, 50% decrease in cell viability
Description: as §2

[4] = system: mouse lymphocytic leukemia L1210; assay: Cytostatic effect on cancer cells (e.g. MTT test); assay type: cell-based; details: 24-72 h incubation, 50% decrease in cell viability
Description: as §2

[5] = system: rat pheochromocytoma PC12; assay: Cytostatic effect on cancer cells (e.g. MTT test); assay type: cell-based; details: 24-72 h incubation, 50% decrease in cell viability
Description: as §2

[6] = system: CCRF-CEM T lymphoblastoid; assay: Cytostatic effect on cancer cells (e.g. MTT test); assay type: cell-based, human; details: 24-72 h incubation, 50% decrease in cell viability
Description: as §2

Tumor cells = assay: Cytostatic effect on cancer cells, summary over the cell panel; assay type: cell-based; details: range over the tumor cell lines, preliminary tests
Description: as §2

bacteria = assay: Antimicrobial effect, general statement; assay type: cell-based
Description: as §1

SMILES: CC[C@H](C)[C@H](NC(=O)[C@H](CO)NC(=O)[C@H](CC(C)C)NC(=O)[C@H](Cc1ccccc1)NC(=O)CN)C(=O)N[C@@H](CC(C)C)C(=O)N[C@@H](CCCCN)C(=O)N[C@@H](CCCCN)C(=O)N[C@H](C(=O)N[C@@H](CC(C)C)C(=O)N1CCC[C@H]1C(=O)N[C@@H](CCCCN)C(=O)N[C@H](C(=O)N[C@@H](CCSC)C(=O)N[C@@H](C)C(=O)N[C@@H](Cc1cnc[nH]1)C(=O)N[C@@H](CCSC)C(=O)N[C@@H](CCCCN)C(N)=O)C(C)C)C(C)C [Peptide I, H-Gly-Phe-Leu-Ser-Ile-Leu-Lys-Lys-Val-Leu-Pro-Lys-Val-Met-Ala-His-Met-Lys-NH2]
- IC50 (Bacilus subtilis): 0.8 µM
- IC50 (Escherichia coli): 2 µM
- IC50 (Pseudomonnas aeruginosa): 18.5 µM
- IC50 (Staphylococcus aureus): 6.8 µM
- hemolytic activity (in words) (rat red blood cells): low hemolytic activity
- Hemolytic activity (rat red blood cells; rat red blood cells (5%), 1 h at 37°C, peptides 1-200 µM): > 100 µM
- IC50 [1]: 18.1 µM
- IC50 [2]: 25 µM
- IC50 [3]: > 10 µM
- IC50 [4]: > 10 µM
- IC50 [5]: 10 µM
- IC50 [6]: > 10 µM
- IC50 (Tumor cells): 4 to 30 µM
- antimicrobial effect (in words) (bacteria): strong antimicrobial effect
